Data reported in US9738612B2, “Methylacryloyl benzimidazolone derivative and anti-tumour use thereof” (SHANGHAI NATURE STANDARD R&D AND BIOTECH CO., LTD, priority 2014, dated 2017).

Experiments:
Hela cells = assay: Subcutaneous transplantation of Hela cells into nude mice; assay type: in vivo
Description: The method used herein for animal experiment was that using the subcutaneous transplantation of Hela cells into nude mice.
Tumor tissues at vigorous growth phase were cut into the size of about 1.5mm^3, and inoculated subcutaneously to the right armpit of nude mice under sterile condition. The diameters of subcutaneous xenograft tumors in nude mice were measured with a vernier caliper. The animals were randomly divided when the tumors grew to the sizes of 100-200 mm^3. FD162 was divided into three groups: 20mg/kg, 10mg/kg and 5mg/kg, with 9 mice per group; rapamycin was 10mg/kg; the model group was given saline. All treatments were intraperitoneally administered once a day for 12 days. Throughout the experiment, tumor diameters and body weights were measured simultaneously twice a week. Tumor volume (TV) was calculated as follows: TV=½×a×b2, where a, b respectively represents the length and width of tumors. […]

[1] = system: Akt phosphorylation at S473 site; assay: ELISA (double antibody sandwich), Akt phosphorylation in IGF-1 stimulated A549 cells; assay type: cell-based; details: drug 1 h, then IGF-1 10 min, p-Akt (S473) ELISA
Description: Establishment of ELISA screening method using a double antibody sandwich method: A549 cells (a lung cancer cell line, purchased from Chinese Academy of Sciences, Shanghai Institutes for Biological Sciences Cell Resource Center) were inoculated at certain densities in 12-well plates, and incubated at 37° C. in a carbon dioxide incubator overnight to let cells attach the plate wells. Meanwhile the Akt antibody was inoculated at a specific concentration in a highly-adsorbed microplate, and placed in a refrigerator at 4° C. The 12-well plates were washed with sterile PBS three times, then into which serum-free F12 was added, and incubated for 24 hours in a incubator. Then MK2206, Triciribine and FD series drugs were added into 12-well plates and worked for one hour, followed by adding 100 ng of IGF-1 and being stimulated for 10 minutes. The 12-well plates were washed with pre-cooled PBS three times, and 100 μl of RIPA lysis buffer was added into each well to lyse cells on ice for 20 minutes. The lysates were collected and added to the appropriate microplate (purchased from Santa Cruz biotechnology), which were shaken on ice. A p-Akt (S473) antibody (purchased Cell Signaling Technology, Inc.) was added into microplates. After shaking for a period of time, an anti-rabbit antibody (purchased from Cell Signaling Technology, Inc.) was added. The reaction was terminated with 2M sulfuric acid after TMB developed. Absorbance at 450 nm was measured on a microplate reader, and the inhibitory rate=[…], among which ODsample refers to the absorbance of the sample well, ODIGF refers the absorbance of the well with IGF only, OD—IGF refers the absorbance of the well withoutIGF.

**Q.** `C=C(C)n1c(=O)n(C(C)=O)c2ncc(Br)cc21` [FD162] was tested. Which Tumor inhibitory rate (Hela cells; 10 mg/kg intraperitoneally once a day for 12 days, Hela xenograft in nude mice) did it give?
**A.** The Tumor inhibitory rate was “greater than 50%”.

**Q.** And the “Tumor inhibiting effect compared with positive control group (rapamycin 10mg/kg)” value (Hela cells; middle dose (10 mg/kg), i.p., 12 days, FIG. 5, in words)?
**A.** Its value is “better than the positive control group”.

**Q.** What about the “Inhibitory rate % (Akt phosphorylation)” value [1] of the same molecule?
**A.** Its value is 91%.
